In article PMC10484855, “Production, purification, and characterization of cold-active lipase from the psychrotroph Pseudomonas sp. A6” (Brazilian Journal of Microbiology, 2023):

Tested on: T1, cold-active lipase from Pseudomonas sp. A6
T1 construct: 65 kDa by SDS-PAGE
Experiment: spectrophotometric p-nitrophenol release at […] nm; Lineweaver-Burk plot
Assay type: biochemical
Conditions: 10 °C; phosphate buffer; pH of the Km assay not stated; unit printed ambiguously as 'm mol'

Km: 6.6 * 10^−4 m mol L^−1
SMILES: CCCCCCCCCCCC(=O)Oc1ccc([N+](=O)[O-])cc1 [p-nitrophenyl laurate]
